Measured values: US20230416248A1, “COMPOUNDS AND USES THEREOF” (Foghorn Therapeutics Inc., priority 2020, published 2023)

Legend:
BRG-1 = target: T1, BRG-1 (Homo sapiens, UniProt P51532); test: ATPase catalytic activity of BRG-1, ADP-Glo in vitro biochemical assay; settings: ATPase catalytic activity, ADP-Glo; 30 nM BRG-1, 400 μM ATP; read-out: BRG1 IC50
T1 construct: made in house; host or cells: High Five insect cells
How it was run: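 In this in vitro format, BRG-1 hydrolysis product ADP is detected via a two-step ADP-Glo workup (ATP removal, then ADP-to-ATP conversion with luciferase detection) followed by a luminescence read.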

BRM = target: T2, BRM (Homo sapiens, UniProt P51531); test: ATPase catalytic activity of BRM, ADP-Glo in vitro biochemical assay; settings: for IC50: ATPase catalytic activity, ADP-Glo, 30 nM BRM, 400 μM ATP; for Ratio*: ratio of BRG1 IC50 to BRM IC50
T2 construct: made in house; host or cells: High Five insect cells
How it was run: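 ADP-Glo luminescence, after depletion of leftover ATP and conversion of ADP, reported the activity. The 1 h room-temperature reaction held 400 μM ATP, 20 nM salmon sperm DNA and 30 nM BRM in 20 mM Tris pH 8, 20 mM MgCl2, 50 mM NaCl, 0.1% Tween-20, 1 mM DTT.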

T2 sequence (P51531 whole entry): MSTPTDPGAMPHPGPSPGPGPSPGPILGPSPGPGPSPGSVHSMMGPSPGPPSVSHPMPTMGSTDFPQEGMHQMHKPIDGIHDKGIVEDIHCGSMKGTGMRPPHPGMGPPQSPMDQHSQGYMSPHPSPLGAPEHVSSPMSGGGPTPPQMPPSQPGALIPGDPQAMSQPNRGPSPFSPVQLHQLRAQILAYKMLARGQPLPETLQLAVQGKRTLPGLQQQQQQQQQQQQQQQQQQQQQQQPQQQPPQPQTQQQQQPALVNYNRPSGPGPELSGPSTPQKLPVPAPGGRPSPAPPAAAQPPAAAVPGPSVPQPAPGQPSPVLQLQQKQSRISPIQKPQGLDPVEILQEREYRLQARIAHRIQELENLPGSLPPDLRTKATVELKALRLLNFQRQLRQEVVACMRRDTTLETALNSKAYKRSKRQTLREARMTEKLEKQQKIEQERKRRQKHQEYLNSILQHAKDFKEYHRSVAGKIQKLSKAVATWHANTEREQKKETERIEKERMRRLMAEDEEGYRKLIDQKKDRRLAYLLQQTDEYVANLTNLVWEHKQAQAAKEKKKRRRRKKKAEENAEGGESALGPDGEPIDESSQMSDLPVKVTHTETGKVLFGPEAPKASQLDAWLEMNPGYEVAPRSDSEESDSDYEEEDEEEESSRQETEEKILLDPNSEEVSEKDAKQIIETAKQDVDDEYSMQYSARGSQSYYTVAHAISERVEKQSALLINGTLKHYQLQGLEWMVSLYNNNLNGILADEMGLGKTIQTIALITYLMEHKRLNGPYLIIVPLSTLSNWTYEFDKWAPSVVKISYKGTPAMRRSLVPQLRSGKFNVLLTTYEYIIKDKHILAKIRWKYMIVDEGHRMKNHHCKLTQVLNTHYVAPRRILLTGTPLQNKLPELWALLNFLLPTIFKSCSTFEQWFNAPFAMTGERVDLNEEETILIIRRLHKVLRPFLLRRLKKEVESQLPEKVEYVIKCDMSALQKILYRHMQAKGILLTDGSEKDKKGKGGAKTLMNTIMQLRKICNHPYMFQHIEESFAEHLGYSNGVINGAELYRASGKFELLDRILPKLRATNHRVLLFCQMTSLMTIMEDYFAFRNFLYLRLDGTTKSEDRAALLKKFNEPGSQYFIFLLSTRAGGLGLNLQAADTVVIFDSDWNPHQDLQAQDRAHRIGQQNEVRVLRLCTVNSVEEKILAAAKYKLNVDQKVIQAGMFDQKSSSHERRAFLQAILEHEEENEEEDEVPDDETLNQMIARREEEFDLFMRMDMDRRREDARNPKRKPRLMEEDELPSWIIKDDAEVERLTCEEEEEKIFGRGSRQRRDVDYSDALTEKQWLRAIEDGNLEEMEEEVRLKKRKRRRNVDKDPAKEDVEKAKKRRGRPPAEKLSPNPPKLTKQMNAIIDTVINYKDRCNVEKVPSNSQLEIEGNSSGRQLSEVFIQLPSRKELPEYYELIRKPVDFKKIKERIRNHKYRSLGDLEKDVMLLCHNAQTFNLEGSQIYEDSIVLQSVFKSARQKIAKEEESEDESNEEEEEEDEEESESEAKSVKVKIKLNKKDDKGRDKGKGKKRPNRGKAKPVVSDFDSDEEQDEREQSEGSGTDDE
T1 sequence (P51532 whole entry): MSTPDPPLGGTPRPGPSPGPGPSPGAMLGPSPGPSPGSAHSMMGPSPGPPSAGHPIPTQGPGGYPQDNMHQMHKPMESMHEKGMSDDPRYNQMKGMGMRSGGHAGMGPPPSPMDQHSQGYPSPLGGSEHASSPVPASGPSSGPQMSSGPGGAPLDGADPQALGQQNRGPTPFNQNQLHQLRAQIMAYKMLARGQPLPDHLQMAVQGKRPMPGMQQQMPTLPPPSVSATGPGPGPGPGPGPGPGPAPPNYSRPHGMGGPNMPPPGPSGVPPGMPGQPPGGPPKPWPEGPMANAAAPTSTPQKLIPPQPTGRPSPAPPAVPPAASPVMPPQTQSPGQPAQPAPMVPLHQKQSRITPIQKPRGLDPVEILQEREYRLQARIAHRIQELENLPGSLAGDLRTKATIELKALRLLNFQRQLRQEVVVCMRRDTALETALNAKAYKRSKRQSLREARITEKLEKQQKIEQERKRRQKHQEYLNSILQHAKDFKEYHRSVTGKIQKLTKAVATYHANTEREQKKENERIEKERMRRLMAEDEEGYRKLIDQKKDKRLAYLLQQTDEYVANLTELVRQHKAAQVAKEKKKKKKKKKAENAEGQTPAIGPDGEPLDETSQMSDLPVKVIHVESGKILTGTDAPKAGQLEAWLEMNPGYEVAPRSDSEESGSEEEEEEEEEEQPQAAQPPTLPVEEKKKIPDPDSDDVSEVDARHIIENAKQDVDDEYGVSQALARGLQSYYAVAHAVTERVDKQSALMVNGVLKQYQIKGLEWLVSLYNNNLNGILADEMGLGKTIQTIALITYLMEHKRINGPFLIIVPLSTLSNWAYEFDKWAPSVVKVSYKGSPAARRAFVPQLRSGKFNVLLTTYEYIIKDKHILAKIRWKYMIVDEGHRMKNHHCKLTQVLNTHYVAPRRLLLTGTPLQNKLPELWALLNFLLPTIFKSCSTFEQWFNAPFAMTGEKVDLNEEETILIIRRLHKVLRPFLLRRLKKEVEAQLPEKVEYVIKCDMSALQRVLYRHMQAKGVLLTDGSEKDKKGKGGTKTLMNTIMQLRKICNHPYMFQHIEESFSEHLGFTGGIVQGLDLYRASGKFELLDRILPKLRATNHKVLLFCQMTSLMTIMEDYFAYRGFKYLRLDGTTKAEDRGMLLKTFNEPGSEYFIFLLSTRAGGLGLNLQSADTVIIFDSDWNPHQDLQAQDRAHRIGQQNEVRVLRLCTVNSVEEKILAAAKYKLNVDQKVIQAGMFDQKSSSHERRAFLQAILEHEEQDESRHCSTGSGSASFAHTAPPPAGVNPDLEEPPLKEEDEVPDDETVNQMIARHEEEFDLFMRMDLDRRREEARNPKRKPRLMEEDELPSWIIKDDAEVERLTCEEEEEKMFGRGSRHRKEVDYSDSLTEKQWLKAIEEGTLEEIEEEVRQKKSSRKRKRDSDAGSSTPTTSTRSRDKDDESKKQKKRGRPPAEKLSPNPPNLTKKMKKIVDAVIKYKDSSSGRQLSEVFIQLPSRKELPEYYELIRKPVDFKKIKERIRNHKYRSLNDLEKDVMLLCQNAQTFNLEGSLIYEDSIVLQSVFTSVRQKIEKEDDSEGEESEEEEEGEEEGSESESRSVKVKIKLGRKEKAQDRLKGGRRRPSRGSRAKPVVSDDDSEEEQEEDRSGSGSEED

Row | Compound | IC50 (BRG-1) [nM] | IC50 (BRM) [nM] | Ratio* (BRM)
1 | C[C@@H]1CN(c2cccc(-c3ccc4cnc(CNC(=O)c5cnc6c(c5)S(=O)(=O)[C@H](C)CCC6)cc4n3)n2)C[C@H](C)O1 [Compound 515] | 2600 | 231 | 11.23
2 | C[C@@H]1CN(c2cccc(-c3ccc4cnc(CNC(=O)c5cc(F)c6c(c5)S(=O)(=O)CCO[C@@H]6C)cc4n3)n2)C[C@H](C)O1 [Compound 516] | 85 | 12.2 | 6.98
3 | COc1nc(-c2ccc3cnc(CNC(=O)c4ccc5c(c4)S(=O)(=O)[C@@H](C)COC5)cc3n2)ccc1C(F)F [Compound 519] | 144 | 13.3 | 10.89
4 | O=C(NCc1cc2nc(N3CCCc4c(C(F)F)ccnc43)ccc2cn1)c1ccc2c(c1)S(=O)(=O)CCOC2 [Compound 521] | 424 | 59.7 | 7.10
5 | C[C@@H]1CN(c2cccc(-c3ccc4cnc(CNC(=O)c5cc(F)c6c(c5)S(=O)(=O)CCO[C@H]6C)cc4n3)n2)C[C@H](C)O1 [Compound 522] | 62.1 | 13.8 | 4.48
6 | CC1COCc2ccc(C(=O)NCc3cc4nc(N5CCOc6cccnc65)ccc4cn3)cc2S1(=O)=O (stereo not drawn) [Compound 523] | 181 | 11.6 | 15.53
7 | C[C@H]1CCOc2c(F)cc(C(=O)NCc3cc4nc(N5CCOc6cccnc65)ccc4cn3)cc2S1(=O)=O [Compound 524] | 171 | 14.6 | 11.68
8 | O=C(NCc1cc2nc(N3CCCc4ccc(C(F)(F)F)cc43)ccc2cn1)c1ccc2c(c1)S(=O)(=O)CCOC2 [Compound 525] | 373 | 25.1 | 14.85
9 | O=C(NCc1cc2nc(N3CCCc4c(F)ccnc43)ccc2cn1)c1ccc2c(c1)S(=O)(=O)CCOC2 [Compound 526] | 250 | 22.1 | 11.34
10 | CC1CCc2ccc(-c3ccc4cnc(CNC(=O)c5ccc6c(c5)S(=O)(=O)CCOC6)cc4n3)nc2O1 (stereo not drawn) [Compound 529] | 671 | 173 | 3.88
11 | COc1nc(-c2ccc3cnc(CNC(=O)c4cc(F)c5c(c4)S(=O)(=O)[C@@H](C)COC5)cc3n2)ccc1C(F)F [Compound 530] | 218 | 19.5 | 11.19
12 | O=C(NCc1cc2nc(N3CCCc4ccc(C(F)F)cc43)ccc2cn1)c1ccc2c(c1)S(=O)(=O)CCOC2 [Compound 532] | 120 | 6.4 | 18.84
13 | CO[C@H]1C[C@H]1N(C)c1cccc(-c2ccc3cnc(CNC(=O)c4ccc5c(c4)S(=O)(=O)CCOC5)cc3n2)n1 [Compound 534] | 76.3 | 6.1 | 12.41
14 | O=C(NCc1cc2nc(N3CCCc4ccc(C5CC5)nc43)ccc2cn1)c1ccc2c(c1)S(=O)(=O)CCOC2 [Compound 536] | 590 | 10.4 | 56.64
15 | CC1CN(c2cccc(-c3ccc4cnc(CNC(=O)c5ccc6c(c5)S(=O)(=O)C(C)COC6C)cc4n3)n2)CC(C)O1 (stereo not drawn) [Compound 540] | 632 | 30.7 | 20.63
16 | COc1nc(C(C)(F)F)ccc1-c1ccc2cnc(CNC(=O)c3ccc4c(c3)S(=O)(=O)[C@@H](C)COC4)cc2n1 [Compound 542] | 229 | 16.8 | 13.60
17 | COc1nc(C(C)(F)F)ccc1-c1ccc2cnc(CNC(=O)c3cc(F)c4c(c3)S(=O)(=O)[C@@H](C)COC4)cc2n1 [Compound 543] | 383 | 20.2 | 18.97
18 | Cc1cc(C(=O)NCc2cc3nc(-c4cccc(N5C[C@@H](C)O[C@@H](C)C5)n4)ccc3cn2)cc2c1O[C@@H](C)CCS2(=O)=O [Compound 544] | 1020 | 41.8 | 24.42
19 | Cc1cnc2c(c1)OCCN2c1ccc2cnc(CNC(=O)c3ccc4c(c3)S(=O)(=O)C(C)COC4)cc2n1 (stereo not drawn) [Compound 545] | 65.9 | 7.7 | 8.60
20 | C[C@@H]1CN(c2cccc(-c3ccc4cnc(CNC(=O)c5cc(Cl)c6c(c5)S(=O)(=O)CCO[C@@H]6C)cc4n3)n2)C[C@H](C)O1 [Compound 553] | 458 | 20.4 | 22.48
21 | Cc1cnc2c(c1)OCCN2c1ccc2cnc(CNC(=O)c3cc(F)c4c(c3)S(=O)(=O)[C@@H](C)COC4)cc2n1 [Compound 554] | 83.1 | 8.6 | 9.64
22 | O=C(NCc1cc2nc(N3CCCc4c(OC5COC5)cccc43)ccc2cn1)c1ccc2c(c1)S(=O)(=O)CCOC2 [Compound 555] | 25 | 4.6 | 5.44
23 | N#Cc1ccc2c(c1)N(c1ccc3cnc(CNC(=O)c4ccc5c(c4)S(=O)(=O)CCOC5)cc3n1)CCC2 [Compound 558] | 139 | 9.3 | 14.96
24 | CO[C@@H](C)c1ccc2c(n1)N(c1ccc3cnc(CNC(=O)c4ccc5c(c4)S(=O)(=O)CCOC5)cc3n1)CCC2 [Compound 561] | 839 | 67.2 | 12.50

Next, values leading:

Row | IC50 (BRG-1) [nM] | IC50 (BRM) [nM] | Ratio* (BRM) | Compound
25 | 263 | 21.4 | 12.29 | O=C(NCc1cc2nc(N3CCOc4cc(C(F)F)ccc43)ccc2cn1)c1ccc2c(c1)S(=O)(=O)CCOC2 [Compound 520]
26 | 177 | 20.9 | 8.47 | N#Cc1ccc2c(c1)CCCN2c1ccc2cnc(CNC(=O)c3ccc4c(c3)S(=O)(=O)CCOC4)cc2n1 [Compound 527]
27 | 91.4 | 7.3 | 12.51 | O=C(NCc1cc2nc(N3CCCc4ccc(Cl)cc43)ccc2cn1)c1ccc2c(c1)S(=O)(=O)CCOC2 [Compound 533]
28 | 1670 | 114 | 14.67 | Cc1ccc2c(n1)N(c1ccc3cnc(CNC(=O)c4ccc5c(c4)S(=O)(=O)CCCO5)cc3n1)CCC2 [Compound 538]
29 | 153 | 12.2 | 12.53 | COc1ccc2c(c1)N(c1ccc3cnc(CNC(=O)c4ccc5c(c4)S(=O)(=O)CCOC5)cc3n1)CCC2 [Compound 539]
30 | 51.7 | 5.4 | 9.59 | COc1ccc2c(c1)OCCN2c1ccc2cnc(CNC(=O)c3ccc4c(c3)S(=O)(=O)CCOC4)cc2n1 [Compound 548]
31 | 131 | 7.3 | 17.80 | Cc1cnc2c(c1)OCCN2c1ccc2cnc(CNC(=O)c3cc(C)c4c(c3)S(=O)(=O)CCOC4)cc2n1 [Compound 549]
32 | 63.9 | 5.3 | 12.09 | Cc1cnc2c(c1)OCCN2c1ccc2cnc(CNC(=O)c3cc(F)c4c(c3)S(=O)(=O)CCOC4)cc2n1 [Compound 550]
33 | 399 | 20.3 | 19.65 | Cc1ccc2c(c1)OCCN2c1ccc2cnc(CNC(=O)c3ccc4c(c3)S(=O)(=O)CCCO4)cc2n1 [Compound 551]
34 | 190 | 9.8 | 19.48 | Cc1cnc2c(c1)OCCN2c1ccc2cnc(CNC(=O)c3cc(Cl)c4c(c3)S(=O)(=O)CCOC4)cc2n1 [Compound 552]
35 | 235 | 11.3 | 20.89 | Cc1ccc2c(n1)N(c1ccc3cnc(CNC(=O)c4ccc5c(c4)S(=O)(=O)CCOC5)cc3n1)CCO2 [Compound 557]
